In publication PMC11173485, “Connecting GSK-3β Inhibitory Activity with IKK-β or ROCK-1 Inhibition to Target Tau Aggregation and Neuroinflammation in Alzheimer’s Disease—Discovery, In Vitro and In Cellulo Activity of Thiazole-Based Inhibitors” (Molecules, 2024):
Read-outs that look alike come from different tables or passages of the source.

Tests used:
ROCK-1 = target: T1, ROCK-1 (Homo sapiens, UniProt Q13464); experiment: ADP-Glo kinase assay, ROCK-1 inhibition; type: biochemical; details: for inhibition at 10 µM: read-out: % inh. at 10 µM ROCK-1
T1 construct: purchased Promega
Text: (§1) We evaluated the inhibitory activity of the final compounds against GSK-3β, IKK-β, and ROCK-1 kinases using the commercially available ADP-Glo™ kinase assay. The method was based on the measurement of luminescence that correlates with kinase activity. […] The latter are inhibitors of the kinases of interest and were integral to the design of our studies.
Promega’s Kinase Enzyme Systems (Promega; Madison, WI, USA) were used to determine the activities of the tested compounds against the human recombinant kinases GSK-3β, IKK- β, and ROCK-1. The assays were performed according to the provided manufacturer’s instruction, based on the optimized conditions of the enzymatic reactions, using the low-volume, white polystyrene, 384-well plates. The ADP-Glo™ Assay (Promega; Madison, WI, USA) was used for bioluminescent detection of the kinase activity. Stock solutions of the tested compounds in DMSO (1mM) were diluted with the Kinase Assay Buffer before use (40 mM Tris, pH 7.5, enriched with 50 µM dithiothreitol; DTT), giving the final desired concentrations. The kinase enzymes, substrates, and ATP solutions were also diluted with the assay buffer prior to use. The GSK-3β, IKK-β, and ROCK-1 substrates were derived from human muscle glycogen synthase 1, human IkBA, and human 40S ribosomal protein S6, respectively. […] The DMSO solution (1% in well) was used in the blank samples instead of the tested inhibitors. After the incubation period, ATP (25 µM per well in the case of GSK-3β and IKK-β kinases; 5 µM per well in the case of ROCK-1 kinase) and an appropriate enzyme substrate (0.2 µg/µL in well) were added to start the enzymatic reaction. The reaction mixture was kept at room temperature for 1 h; then, the ADP-Glo™ reagent was added, to terminate the kinase reaction and deplete any remaining ATP. After 40 min, a second reagent (Kinase Detection Reagent) was applied to convert the obtained ADP to ATP and to generate light from the newly synthesized ATP using a luciferase/luciferin reaction. The mixture was incubated for another 30 min at room temperature before the luminescence was measured. The calculations of the percent of kinases’ inhibition by tested compounds were based on the equation 100 − (S/B) × 100; S and B are the enzyme activities with and without the tested sample, respectively. […]. IC50 results were obtained using nonlinear regression (GraphPad Prism 9; GraphPad Software, San Diego, CA, USA) by plotting the residual enzyme activities against the applied inhibitor concentration. Each compound was evaluated in two independent experiments, with every data point collected in duplicate.

IKK-β = target: T2, IKK-β (Homo sapiens, UniProt O14920); experiment: ADP-Glo kinase assay, IKK-β inhibition; type: biochemical; details: for inhibition at 10 µM: mean ± SD, read-out: % inh. at 10 µM IKK-β; for IC50: mean ± SEM, ATP 25 µM
T2 construct: purchased Promega
T2 sequence (O14920 1-756): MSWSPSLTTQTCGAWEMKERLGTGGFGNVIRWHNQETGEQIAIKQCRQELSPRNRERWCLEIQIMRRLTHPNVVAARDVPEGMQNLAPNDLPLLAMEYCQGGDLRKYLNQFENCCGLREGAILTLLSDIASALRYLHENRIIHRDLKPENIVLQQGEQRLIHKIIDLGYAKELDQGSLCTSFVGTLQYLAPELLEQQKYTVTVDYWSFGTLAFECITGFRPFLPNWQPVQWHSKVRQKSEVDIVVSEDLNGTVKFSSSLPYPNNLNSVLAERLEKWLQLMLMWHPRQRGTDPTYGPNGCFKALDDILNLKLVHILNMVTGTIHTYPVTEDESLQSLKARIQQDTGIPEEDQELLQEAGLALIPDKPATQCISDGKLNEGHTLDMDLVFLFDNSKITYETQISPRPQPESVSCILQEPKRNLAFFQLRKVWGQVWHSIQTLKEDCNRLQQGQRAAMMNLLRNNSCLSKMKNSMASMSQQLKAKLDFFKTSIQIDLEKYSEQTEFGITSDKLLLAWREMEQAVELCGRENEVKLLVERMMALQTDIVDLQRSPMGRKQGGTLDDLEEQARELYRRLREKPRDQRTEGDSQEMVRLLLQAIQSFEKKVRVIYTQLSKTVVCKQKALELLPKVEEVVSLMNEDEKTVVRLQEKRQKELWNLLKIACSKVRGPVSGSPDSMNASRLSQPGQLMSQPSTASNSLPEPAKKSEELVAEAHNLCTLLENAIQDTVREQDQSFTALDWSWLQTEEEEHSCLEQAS
Text: as §1
Promega’s Kinase Enzyme Systems (Promega; Madison, WI, USA) were used to determine the activities of the tested compounds against the human recombinant kinases GSK-3β, IKK- β, and ROCK-1. The assays were performed according to the provided manufacturer’s instruction, based on the optimized conditions of the enzymatic reactions, using the low-volume, white polystyrene, 384-well plates. The ADP-Glo™ Assay (Promega; Madison, WI, USA) was used for bioluminescent detection of the kinase activity. Stock solutions of the tested compounds in DMSO (1mM) were diluted with the Kinase Assay Buffer before use (40 mM Tris, pH 7.5, enriched with 50 µM dithiothreitol; DTT), giving the final desired concentrations. The kinase enzymes, substrates, and ATP solutions were also diluted with the assay buffer prior to use. The GSK-3β, IKK-β, and ROCK-1 substrates were derived from human muscle glycogen synthase 1, human IkBA, and human 40S ribosomal protein S6, respectively. The assay procedure was as follows: At first, the appropriate kinase enzyme (GSK-3β: 10 ng per well; IKK-β: 45 ng per well; ROCK-1: 24 ng per well) was incubated with the tested sample (10 µM in well) for 5 min. The DMSO solution (1% in well) was used in the blank samples instead of the tested inhibitors. After the incubation period, ATP (25 µM per well in the case of GSK-3β and IKK-β kinases; 5 µM per well in the case of ROCK-1 kinase) and an appropriate enzyme substrate (0.2 µg/µL in well) were added to start the enzymatic reaction. The reaction mixture was kept at room temperature for 1 h; then, the ADP-Glo™ reagent was added, to terminate the kinase reaction and deplete any remaining ATP. After 40 min, a second reagent (Kinase Detection Reagent) was applied to convert the obtained ADP to ATP and to generate light from the newly synthesized ATP using a luciferase/luciferin reaction. The mixture was incubated for another 30 min at room temperature before the luminescence was measured. The calculations of the percent of kinases’ inhibition by tested compounds were based on the equation 100 − (S/B) × 100; S and B are the enzyme activities with and without the tested sample, respectively. […] Each compound was evaluated in two independent experiments, with every data point collected in duplicate.

T1 sequence (Q13464 whole entry): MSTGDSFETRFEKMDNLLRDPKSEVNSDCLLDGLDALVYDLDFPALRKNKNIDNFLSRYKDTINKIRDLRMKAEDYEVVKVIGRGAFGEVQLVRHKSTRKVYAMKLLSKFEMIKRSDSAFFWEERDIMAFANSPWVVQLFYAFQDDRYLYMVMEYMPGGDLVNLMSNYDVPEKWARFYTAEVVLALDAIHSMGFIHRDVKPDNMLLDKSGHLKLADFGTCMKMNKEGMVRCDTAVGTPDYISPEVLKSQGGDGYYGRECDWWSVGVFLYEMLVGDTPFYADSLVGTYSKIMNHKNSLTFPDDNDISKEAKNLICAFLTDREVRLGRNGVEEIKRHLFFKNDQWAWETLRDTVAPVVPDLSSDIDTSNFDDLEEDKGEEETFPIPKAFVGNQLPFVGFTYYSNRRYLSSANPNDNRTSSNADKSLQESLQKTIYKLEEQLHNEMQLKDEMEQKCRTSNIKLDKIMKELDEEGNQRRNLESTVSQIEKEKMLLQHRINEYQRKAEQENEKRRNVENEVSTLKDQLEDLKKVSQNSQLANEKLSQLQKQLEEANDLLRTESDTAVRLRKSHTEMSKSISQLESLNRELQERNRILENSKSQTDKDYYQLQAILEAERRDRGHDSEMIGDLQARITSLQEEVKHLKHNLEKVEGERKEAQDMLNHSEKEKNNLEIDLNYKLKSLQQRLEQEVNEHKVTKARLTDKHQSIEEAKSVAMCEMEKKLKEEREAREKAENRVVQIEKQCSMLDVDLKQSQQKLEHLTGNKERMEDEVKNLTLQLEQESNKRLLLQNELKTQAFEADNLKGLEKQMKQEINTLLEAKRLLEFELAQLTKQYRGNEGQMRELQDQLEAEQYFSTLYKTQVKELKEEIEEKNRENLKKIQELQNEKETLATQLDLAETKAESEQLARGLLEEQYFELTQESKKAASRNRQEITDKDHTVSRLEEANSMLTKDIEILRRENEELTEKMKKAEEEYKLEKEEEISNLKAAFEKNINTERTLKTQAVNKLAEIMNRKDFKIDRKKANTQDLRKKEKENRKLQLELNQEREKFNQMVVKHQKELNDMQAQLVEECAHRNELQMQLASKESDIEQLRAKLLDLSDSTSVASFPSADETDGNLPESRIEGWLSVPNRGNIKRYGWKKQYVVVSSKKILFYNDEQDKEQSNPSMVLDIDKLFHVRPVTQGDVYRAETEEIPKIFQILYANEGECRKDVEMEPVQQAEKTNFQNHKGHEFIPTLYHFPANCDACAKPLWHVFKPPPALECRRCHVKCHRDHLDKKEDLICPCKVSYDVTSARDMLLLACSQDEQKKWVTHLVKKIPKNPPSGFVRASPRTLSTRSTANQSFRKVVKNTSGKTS

Row | SMILES | inhibition at 10 µM (ROCK-1; mean ± SD) [%] | inhibition at 10 µM (IKK-β) [%] | IC50 (ROCK-1; mean ± SEM, ATP 5 µM) [µM] | IC50 (IKK-β) [µM] | other results
1 | CC(C)C(=O)Nc1cc(-c2cc3c(s2)C(=O)NC(C)(C)N3)ccn1 [Compound 39, N-(4-(2,2-Dimethyl-4-oxo-1,2,3,4-tetrahydrothieno [3,2-d]pyrimidin-6-yl)pyridin-2-yl)isobutyramide] | 32 | 33 | – | – | –
2 | CC1(C)NC(=O)c2sc(-c3ccnc(NC(=O)C4CC4)c3)cc2N1 [Compound 40, N-(4-(2,2-Dimethyl-4-oxo-1,2,3,4-tetrahydrothieno [3,2-d]pyrimidin-6-yl)pyridin-2-yl)-cyclopropanecarboxamide] | – | – | 1.76 ± 0.109 | 4.38 ± 0.544 | –
3 | CC1(C)NC(=O)c2sc(-c3ccnc(NC(=O)C4CCC4)c3)cc2N1 [Compound 41, N-(4-(2,2-Dimethyl-4-oxo-1,2,3,4-tetrahydrothieno [3,2-d]pyrimidin-6-yl)pyridin-2-yl)-cyclobutanecarboxamide] | 48 | 32 | – | – | –
4 | CC(C)C(=O)Nc1cc(-c2cc(NC(N)=O)c(C(N)=O)s2)ccn1 [Compound 48, 5-(2-Isobutyramidopyridin-4-yl)-3-ureidothiophene-2-carboxamide] | < 10 | < 10 | – | – | –
5 | NC(=O)Nc1cc(-c2ccnc(NC(=O)C3CC3)c2)sc1C(N)=O [Compound 49, 5-(2-(Cyclopropanecarboxamido)pyridin-4-yl)-3-ureidothiophene-2-carboxamide] | – | 16 | – | – | –
6 | NC(=O)Nc1cc(-c2ccnc(NC(=O)C3CCC3)c2)sc1C(N)=O [Compound 50, 5-(2-(Cyclobutanecarboxamido)pyridin-4-yl)-3-ureidothiophene-2-carboxamide] | – | < 10 | – | – | inhibition at 1 µM (ROCK-1; 1 μM (footnote), mean ± SD, read-out: % inh. ROCK-1, tested at inhibitor screening concentration of 1 μM): < 10%
7 | NC(=O)Nc1cc(-c2cccc(NC(=O)C3CC3)c2)sc1C(N)=O [Compound 58, 5-(3-(Cyclopropanecarboxamido)phenyl)-3-ureidothiophene-2-carboxamide] | – | – | – | 0.422 ± 0.012 | –
8 | O=C1NC2(CCCC2)Nc2cc(-c3ccnc(NC(=O)C4CC4)c3)sc21 [Compound 60, N-(4-(4’-Oxo-3’,4’-dihydro-1’H-spiro[cyclopentane-1,2’-thieno [3,2-d]pyrimidin]-6’-yl)pyridin-2-yl)cyclopropanecarboxamide] | – | – | 1.36 ± 0.079 | 7.35 | –
9 | O=C1NC2(CCOC2)Nc2cc(-c3ccnc(NC(=O)C4CC4)c3)sc21 (stereo not drawn) [Compound 62, N-(4-(4′-Oxo-3′,4,4′,5-tetrahydro-1′H,2H-spiro[furan-3,2′-thieno [3,2-d]pyrimidin]-6′-yl)pyridin-2-yl)cyclopropanecarboxamide] | – | 39 | 2.31 ± 0.131 | – | IC50 (ROCK-1): 2.3 µM
10 | COc1nc(-c2ccnc(NC(=O)C3CC3)c2)sc1C(N)=O [II, reference compound] | – | 22 | – | – | –
